Assay results: patent EP0097567B1, “Use of polyethoxylated alkyl phenols as antiseborrheic agents” (SANOFI S.A., priority 1982, dated 1984)

Legend:
lipogénèse sébacée = assay: Activity on sebaceous lipogenesis in vitro (incorporation of 14C-glucose into lipids of rat ear skin slices); type: cell-based, rats mâles Sprague Dawley; conditions: 4 h, pure products, read-out: Synthèse des lipides à partir de glucose (U-1^14C)Δ % témoin; for inhibition at 0.01 %: concentration 0,01 %; for inhibition at 0.001 %: concentration 0,001 %; for inhibition at 0.0025 %: concentration 0,0025 %; for inhibition at 0.005 %: concentration 0,005 %; for inhibition at 0.0005 %: concentration 0,0005 %
Text: Après sacrifice au chloroforme de rats mâles Sprague Dawley, d'un poids moyen de 210 g, les oreilles sont découpées aux ciseaux suivant des repères anatomiques fixes, puis leur côté ventral est soigneusement rasé. Après fixation à l'aide de rubans adhésifs sur une plaque de verre, le côté ventral de l'oreille est prélivé à l'aide d'un kératotome de Castroviejo dont l'épaisseur de coupe est réglée sur 3 mm. Ce prélèvement est ensuite coupé en petits carrés de 1 mm^2 avec une lame de rasoir et pesé avant introduction dans le tube servant à l'incubation.
L'incubation se fait dans 1,5 ml de Krebs-Ringer tamponné à pH 7,4 (tampon phosphate Sôrensen 1/15 M) et contenant 100 U/ml de pénicilline, 1 mg/ml de Streptomycine et 2 mmol de glucose non radioactif. Le produit, à la concentration à étudier, est préalablement dissous dans du propylèneglycol (concentration finale égale à 0,5%), puis introduit dans le milieu d'incubation. Les tubes servant à l'incubation sont maintenus dans un bain de glace, jusqu'à ce que tous les prélèvements soient effectués, puis 7,4kBq de glucose U_^14C (74-148 MBq/mmol) sont ajoutés dans chaque tube.
Pour chaque rat utilisé, une des oreilles sert à tester le produit antiséborrhéique potentiel, alors que l'autre sert de témoin.
Après 4 heures d'incubation à 37°C, le milieu d'incubation est éliminé, puis l'incubat subit 4 lavages de 3 mins avec agitation à l'aide de glucose non radioactif (2 g/I). Une fois la dernière eau de lavage éliminée, 3 ml de potasse alcoolique N sont rajoutés dans chaque tube contenant les glandes sébacées de la peau d'oreille. Les tubes sont bouchés et portés à 70°C pendant une nuit.
Après ce temps, les tubes sont refroidis et 3 ml d'acide chlorhydrique 2N sont introduits dans chaque tube. Les lipides présents correspondant aux glandes sébacées de chaque oreille sont alors extraits par 2 fois 4 ml d'hexane après agitation de 5 min. Après séparation des phases aqueuse et hexanique, 3,25 ml d'hexane à la première extraction et 4 ml à la deuxième sont prélevés et réunis dans une fiole de comptage contenant 10 ml de liquide de mélange scintillant.
Les fioles, après bouchage et- agitation, sont introduites dans un compteur à scintillation liquide préréglé sur le canal ^14C. Le temps de comptage de chaque fiole est de 4 min. Pour chaque fiole, le résultat exprimé en coups/minute (cpm) est transformé en fonction du poids de prélèvement en cpm/mg et l'inhibition (ou l'augmentation) de la synthèse des lipides est donnée par la variation % (A%) de l'incorporation en cpm/mg entre l'oreille témoin et l'oreille "traitée".
La moyenne des A% est effectuée et la valeur statistique des résultats est déterminée par le calcul du coefficient "t" de Student.

organes du flanc = assay: Local antiseborrheic activity (testosterone propionate-stimulated hamster flank organ, lipogenesis from 14C-glucose); type: in vivo, hamsters femelles Syrien doré; conditions: topical, dose de 2000 µg par jour
Method: Des hamsters femelles Syrien doré, d'un poids moyen de 110 g, sont tondus et rasés au niveau des organes du flanc qui se présentent sous l'aspect d'une tache sombre de 2 mm de diamètre environ, de part et d'autre de la colonne vertébrale. Sur un des organes, 1,25 µg de testostérone propionate est appliqué journellement sous un volume de 10 µl d'acétone, l'autre organe recevent la même quantité de testostérone associée au produit à étudier. Le traitement s'effectue 5 jours/7 jours pendant 21 jours.
A la fin de cette période, les animaux sont sacrifiés au chloroforme et les diamètres des taches pigmentées sont measurés à l'aide d'une régie graduée. La peau est prélevée, fixée côte épiderme vers le bas, sur une planche en bois. Le muscle peaucier et le tissu adipeux sont alors éliminés par rabotage au Kératotome de Castroviejo (épaisseur de coupe réglée à 3 mm), puis une biopsie de 10 mm de diamètre au niveau de chaque organe est réalisée à l'aide d'un trépan. Cette biopsie est débitée en carrés de 1 mm^2, puis pesée (±0,1 mg).
Le reste de manipulation: incubation, saponification, extraction, est identique à celui effectué dans le test de lipogénèse in vitro ci-dessus.

SMILES | inhibition at 0.01 % (lipogénèse sébacée) | inhibition at 0.001 % (lipogénèse sébacée) | inhibition at 0.0025 % (lipogénèse sébacée) | inhibition at 0.005 % (lipogénèse sébacée) | inhibition de la lipogenèse sébacée par rapport au témoin (organes du flanc) | inhibition at 0.00025 % (lipogénèse sébacée; concentration 0,00025 %) | inhibition at 0.0005 % (lipogénèse sébacée) | inhibition at 0.025 % (lipogénèse sébacée; concentration 0,025 %)
CCCCCCCCCc1ccc(OCCOCCOCCOCCOCCOCCO)cc1 [40 124, nonyl-4 phénoxy-17 pentaoxa-3,6,9,12,15 heptadécanol-1] | 55% | 6% | 31% | 42% |  |  |  | 
CCCCCCCCCc1ccc(OCCOCCOCCOCCOCCOCCOCCOCCOCCO)cc1 [compound 7948] | 81% | 10% | 31% | 61% |  |  |  | 
CCCCCCCCCc1ccc(OCCOCCOCCOCCOCCOCCOCCOCCOCCOCCOCCOCCO)cc1 [compound 7886] |  | 51% |  | 84% | 100% | 6% | 33% | 71%
CC(C)(C)CC(C)(C)c1ccc(OCCOCCOCCOCCOCCOCCO)cc1 [40 181] | 67% | 4% | 5% | 42% |  |  |  | 
CC(C)(C)CC(C)(C)c1ccc(OCCOCCOCCOCCOCCOCCOCCOCCOCCOCCOCCOCCO)cc1 [40 182] |  | 41% | 69% | 89% |  |  | 19% | 
